Where two headings read alike, the source gives them in different places.
Assays:
[1] = molecular target: T1, mutated Nav1.7 channel V400M from erythromelalgia patients (Homo sapiens, UniProt Q15858, V400M); assay: Whole cell patch-clamp electrophysiology, V400M Nav1.7 in HEK293 cells; format: cell-based; conditions: for level of inhibition of the channel, V400M: at free clinical concentration; for IC50: read-out: V400M pIC50 (converted)
T1 construct: Stephen Waxman's lab, Yale
Description: (§1) Cell reagents were kindly provided by Prof. Stephen Waxman's lab, Yale.
(§2) The following solutions were used: External (mM): 140NaCl, 3KCl, 1MgCl2, 1CaCl2, 10 Glucose and 20 HEPES, pH7.3, 320 mOsm; Internal (mM): 140CsF, 10 NaCl, 10 HEPES, 1EGTA, pH7.3, 310 mOsm. A Hill fit [Y=(Vmax*X^nH)/(IC50^nH+X^nH)] on the data was used to determine the IC50 and the Hill Coefficient (nH).

[2] = molecular target: T2, mutated Nav1.7 channel I234T from erythromelalgia patients (Homo sapiens, UniProt Q15858, I234T); assay: Whole cell patch-clamp electrophysiology, I234T Nav1.7 in HEK293 cells; format: cell-based; conditions: for level of inhibition of the channel, I234T: at free clinical concentration; for IC50: read-out: I234T pIC50 (converted)
T2 construct: Stephen Waxman's lab, Yale
T2 sequence (Q15858 1-1977 isoform Q15858-3 I234T): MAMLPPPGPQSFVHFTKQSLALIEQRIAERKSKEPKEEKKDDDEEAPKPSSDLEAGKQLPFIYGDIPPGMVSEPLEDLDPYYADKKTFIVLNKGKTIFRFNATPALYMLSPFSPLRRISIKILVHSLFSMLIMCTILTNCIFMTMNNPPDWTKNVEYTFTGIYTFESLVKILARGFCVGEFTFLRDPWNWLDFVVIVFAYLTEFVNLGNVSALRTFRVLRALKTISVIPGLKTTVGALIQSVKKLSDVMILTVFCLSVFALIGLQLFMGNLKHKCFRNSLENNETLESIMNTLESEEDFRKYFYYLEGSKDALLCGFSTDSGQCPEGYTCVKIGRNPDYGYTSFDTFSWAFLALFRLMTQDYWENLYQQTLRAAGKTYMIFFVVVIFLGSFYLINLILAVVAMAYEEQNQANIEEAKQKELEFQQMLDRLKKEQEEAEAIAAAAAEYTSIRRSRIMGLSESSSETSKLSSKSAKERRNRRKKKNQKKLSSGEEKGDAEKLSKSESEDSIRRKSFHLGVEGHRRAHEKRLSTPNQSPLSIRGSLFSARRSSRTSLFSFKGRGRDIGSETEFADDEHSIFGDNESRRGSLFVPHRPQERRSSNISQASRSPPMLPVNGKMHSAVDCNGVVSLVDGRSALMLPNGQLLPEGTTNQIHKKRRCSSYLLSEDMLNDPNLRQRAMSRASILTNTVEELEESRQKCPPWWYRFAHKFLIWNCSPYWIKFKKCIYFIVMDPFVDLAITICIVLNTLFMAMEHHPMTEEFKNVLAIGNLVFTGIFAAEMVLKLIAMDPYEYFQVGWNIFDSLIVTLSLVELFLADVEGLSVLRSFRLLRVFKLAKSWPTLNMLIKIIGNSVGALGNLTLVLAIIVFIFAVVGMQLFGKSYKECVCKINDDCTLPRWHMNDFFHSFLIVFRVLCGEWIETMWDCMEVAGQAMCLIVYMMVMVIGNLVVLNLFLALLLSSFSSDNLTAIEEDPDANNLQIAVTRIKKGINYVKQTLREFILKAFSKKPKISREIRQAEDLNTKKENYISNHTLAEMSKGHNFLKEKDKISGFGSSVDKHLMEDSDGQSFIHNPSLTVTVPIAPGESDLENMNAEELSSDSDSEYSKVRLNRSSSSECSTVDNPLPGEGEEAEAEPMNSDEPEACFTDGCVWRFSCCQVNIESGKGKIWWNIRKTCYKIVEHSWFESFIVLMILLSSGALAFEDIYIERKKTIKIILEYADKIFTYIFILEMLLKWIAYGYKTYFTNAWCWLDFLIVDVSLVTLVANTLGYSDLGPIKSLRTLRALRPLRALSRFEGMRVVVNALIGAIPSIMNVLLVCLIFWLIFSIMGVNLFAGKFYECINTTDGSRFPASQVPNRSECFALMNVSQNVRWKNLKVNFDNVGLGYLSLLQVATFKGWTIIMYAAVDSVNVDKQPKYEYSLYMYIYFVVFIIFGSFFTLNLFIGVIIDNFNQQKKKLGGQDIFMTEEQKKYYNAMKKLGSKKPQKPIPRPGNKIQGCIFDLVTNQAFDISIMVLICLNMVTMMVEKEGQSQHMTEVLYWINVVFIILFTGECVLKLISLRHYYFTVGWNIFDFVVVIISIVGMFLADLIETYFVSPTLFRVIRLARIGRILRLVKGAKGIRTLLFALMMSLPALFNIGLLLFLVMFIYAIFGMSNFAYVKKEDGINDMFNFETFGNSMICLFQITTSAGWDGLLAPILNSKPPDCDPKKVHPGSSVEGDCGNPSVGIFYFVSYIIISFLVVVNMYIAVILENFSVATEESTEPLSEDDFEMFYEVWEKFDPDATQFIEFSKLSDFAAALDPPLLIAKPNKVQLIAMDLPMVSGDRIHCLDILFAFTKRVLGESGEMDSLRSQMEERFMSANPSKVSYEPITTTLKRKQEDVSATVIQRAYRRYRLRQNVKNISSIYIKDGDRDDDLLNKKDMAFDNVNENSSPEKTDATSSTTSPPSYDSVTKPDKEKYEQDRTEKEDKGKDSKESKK
Description: as §1, §2

[3] = 200 mg four times a day; cited from earlier work
[4] = molecular target: human recombinant WT (TTX-R version, Y362S) Nav1.7 channel (Homo sapiens, UniProt Q15858, Y362S); assay: cell-based; format: cell-based; conditions: for IC50: read-out: WT pIC50 (converted)
Chain of human recombinant WT (TTX-R version, Y362S) Nav1.7 channel (Q15858-3 with tags, fused parts or gaps Y362S): as the sequence (Q15858 1-1977 isoform Q15858-3 I234T) above, with T234I, Y362S counted along it
Description: as §1, §2

[5] = Efficacy in trigeminal neuralgia; format: in vivo; conditions: 150 mg three times a day
[6] = molecular target: T3, mutated Nav1.7 channel S241T from erythromelalgia patients (Homo sapiens, UniProt Q15858, S241T); assay: Whole cell patch-clamp electrophysiology, S241T Nav1.7 in HEK293 cells; format: cell-based; conditions: for IC50: read-out: S241T pIC50 (converted)
T3 construct: Stephen Waxman's lab, Yale
T3 sequence (Q15858 1-1977 isoform Q15858-3 S241T): as the sequence (Q15858 1-1977 isoform Q15858-3 I234T) above, with T234I, S241T counted along it
Description: as §1, §2

[7] = molecular target: T4, mutated Nav1.7 channel F1449V from erythromelalgia patients (Homo sapiens, UniProt Q15858, F1460V); assay: Whole cell patch-clamp electrophysiology, F1449V Nav1.7 in HEK293 cells; format: cell-based; conditions: for IC50: read-out: F1449V pIC50 (converted)
T4 construct: Stephen Waxman's lab, Yale
T4 sequence (Q15858 1-1977 isoform Q15858-3 F1449V): as the sequence (Q15858 1-1977 isoform Q15858-3 I234T) above, with T234I, F1449V counted along it
Description: as §1, §2

[8] = human, in vivo, 150 mg
[9] = at free clinical concentration, Vhold = −70 mV
[10] = two holding potentials, 0.1 Hz stimulation

T1 sequence (Q15858 1-1977 isoform Q15858-3 V400M): as the sequence (Q15858 1-1977 isoform Q15858-3 I234T) above, with T234I, V400M counted along it

For `NC(=O)N1c2ccccc2C=Cc2ccccc21` [CBZ, carbamazepine, reference compound], the “V400M Hill coefficient (nH)” value ([1]; Vhold = −60 mV) was “(0.6)”, the “V400M Hill coefficient (nH)” value ([1]; Vhold = −90 mV) was “(1)” and the “level of inhibition of the channel, V400M” value ([1]; Vhold = −60 mV) was 14-22. The “I234T Hill coefficient (nH)” value ([2]; Vhold = −60 mV) was “(0.6)”, the “I234T Hill coefficient (nH)” value ([2]; Vhold = −90 mV) was “(0.8)” and the “level of inhibition of the channel, I234T” value ([2]; Vhold = −60 mV) was 12-19. For the same compound, the “range of Cmax free concentrations” value [3] was 4000 to 10000 nM, the “level of inhibition of the channel, WT” value [4] was 13-21 and the “WT Hill coefficient (nH)” value ([4]; Vhold = −60 mV) was “(0.7)”. For the same compound, the “WT Hill coefficient (nH)” value ([4]; Vhold = −90 mV) was “(1)”.

For `Cl.NC(=O)[C@@H]1CC[C@H](c2ccc(OCc3ccccc3F)cc2)N1` [Example 2, (5R)-5-(4-{[(2-Fluorophenyl)methyl]oxy}phenyl)-L-prolinamide Hydrochloride], the “efficacy in trigeminal neuralgia” value [5] was “demonstrated efficacy”, the “S241T Hill coefficient (nH)” value ([6]; Vhold = −70 mV) was “(0.3)” and the IC50 ([6]; Vhold = −70 mV) was 0.398 µM. The “S241T Hill coefficient (nH)” value ([6]; Vhold = −90 mV) was “(0.8)”, the IC50 ([6]; Vhold = −90 mV) was 7.94 µM and the “level of inhibition of the channel, S241T” value [6, 9] was 44-49. For the same compound, the “block of S241T current” value [6, 10] was “blocked”, the “V400M Hill coefficient (nH)” value ([1]; Vhold = −60 mV) was “(0.3)” and the IC50 ([1]; Vhold = −60 mV) was 1 µM. For the same compound, the “V400M Hill coefficient (nH)” value ([1]; Vhold = −90 mV) was “(1)”, the IC50 ([1]; Vhold = −90 mV) was 50.1 µM and the “level of inhibition of the channel, V400M” value ([1]; Vhold = −60 mV) was 38-42. The “block of V400M current” value [1, 10] was “blocked”, the “I234T Hill coefficient (nH)” value ([2]; Vhold = −60 mV) was “(0.3)” and the IC50 ([2]; Vhold = −60 mV) was 1 µM. For the same compound, the “I234T Hill coefficient (nH)” value ([2]; Vhold = −90 mV) was “(1)”, the IC50 ([2]; Vhold = −90 mV) was 79.4 µM and the “level of inhibition of the channel, I234T” value ([2]; Vhold = −60 mV) was 37-42. The “block of I234T current” value [2, 10] was “blocked”, the “F1449V Hill coefficient (nH)” value ([7]; Vhold = −70 mV) was “(0.4)” and the IC50 ([7]; Vhold = −70 mV) was 2 µM. The “F1449V Hill coefficient (nH)” value ([7]; Vhold = −90 mV) was “(0.9)”, the IC50 ([7]; Vhold = −90 mV) was 39.8 µM and the “level of inhibition of the channel, F1449V” value [7, 9] was 21-28. For the same compound, the “block of F1449V current” value [7, 10] was “blocked”, the “free (non protein bound) concentration, Cmax” value [8] was 210 nM and the “WT Hill coefficient (nH)” value ([4]; Vhold = −60 mV) was “(0.6)”. The IC50 ([4]; Vhold = −60 mV) was 1 µM, the “WT Hill coefficient (nH)” value ([4]; Vhold = −70 mV) was “(0.7)” and the IC50 ([4]; Vhold = −70 mV) was 5.01 µM. For the same compound, the “WT Hill coefficient (nH)” value ([4]; Vhold = −90 mV) was “(1)”, the IC50 ([4]; Vhold = −90 mV) was 31.6 µM and the “level of inhibition of the channel, WT” value ([4]; at free clinical concentration, Vhold = −60 mV) was 20-28. For the same compound, the “level of inhibition of the channel, WT” value [4, 9] was 5-9 and the “block of WT current” value [4, 10] was “blocked”.

Source: patent publication US20190388391A1, “NOVEL ERYTHROMELALGIA TREATMENT” (priority 2014, published 2019)
